This note sets out measurements from PubChem BioAssay (NCI).

Among the test systems are A549 NSCLC; HCT-116 colon; HS 578T breast; K-562 leukemia; M14 melanoma; NCI-H226 lung; NCI-H522 lung; OVCAR-4 ovarian; SNB-75 CNS; U251 CNS.
Common to all, as to assay: inhibition of tumour cell growth, NCI panel, 48 h

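Test compounds were applied to cells in 96-well plates for 48 hours at 5 doses. TGI is the concentration that stops growth completely.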

As for `NC(Cc1ncccn1)C(=O)O` (stereo not given), the TGI in the assay with A549 NSCLC, with HCT-116 colon, with HS 578T breast, in the assay with K-562 leukemia, in the assay with M14 melanoma and in the assay with NCI-H226 lung was greater than 100 µM throughout. Moreover, the TGI with NCI-H522 lung, with OVCAR-4 ovarian, with SNB-75 CNS and with U251 CNS was greater than 100 µM in each case.

Regarding `COc1cccc2cc(C(C)=O)c(=O)oc12`, the TGI with A549 NSCLC, with HCT-116 colon, with HS 578T breast, with K-562 leukemia, with M14 melanoma and in the assay with NCI-H226 lung was greater than 100 µM each time. In addition, the TGI in the assay with NCI-H522 lung, in the assay on OVCAR-4 ovarian, in the assay with SNB-75 CNS and in the assay with U251 CNS was greater than 100 µM in each case.

Consider `O=C(Nc1cccc2ccccc12)c1ccccc1`, for which the TGI in the assay on A549 NSCLC, with HCT-116 colon, in the assay with HS 578T breast, with K-562 leukemia, in the assay on M14 melanoma and with NCI-H226 lung was greater than 100 µM throughout. In addition, the TGI in the assay with NCI-H522 lung, with OVCAR-4 ovarian, in the assay with SNB-75 CNS and with U251 CNS was greater than 100 µM each time.

On to `O=S(=O)(/N=C(\NO)Nc1ccc(Cl)cc1)c1ccccc1`, for which the TGI is greater than 100 µM with A549 NSCLC; 24.3 µM in the assay with HCT-116 colon; 34.6 µM in the assay with HS 578T breast; greater than 100 µM with K-562 leukemia; 48.6 µM with M14 melanoma; greater than 100 µM in the assay on NCI-H226 lung. Besides, the TGI with NCI-H522 lung is 5.38 µM; in the assay with OVCAR-4 ovarian, greater than 61.2 µM; with SNB-75 CNS it was 19.4 µM; in the assay on U251 CNS, greater than 100 µM.

On to `COP(=O)(OC)/C(=C/c1cn(C(c2ccccc2)(c2ccccc2)c2ccccc2)cn1)NC=O`, for which the TGI was greater than 100 µM with A549 NSCLC; 32.8 µM with HCT-116 colon; 43.2 µM in the assay on HS 578T breast; greater than 100 µM with K-562 leukemia; 34.4 µM with M14 melanoma; 98.9 µM in the assay on NCI-H226 lung. Moreover, the TGI with NCI-H522 lung was 41.2 µM; with OVCAR-4 ovarian, 51.9 µM; in the assay with SNB-75 CNS, 23.3 µM; in the assay on U251 CNS, 35.4 µM.

Consider `CCOC(=O)C(O)(C(=O)OCC)c1cc(C(C)(C)C)c(O)c(C(C)(C)C)c1`, for which the TGI in the assay on A549 NSCLC, in the assay on HCT-116 colon, in the assay with HS 578T breast, with K-562 leukemia, with M14 melanoma and in the assay with NCI-H226 lung was greater than 100 µM in each case. Also, the TGI in the assay with NCI-H522 lung, in the assay on OVCAR-4 ovarian, in the assay on SNB-75 CNS and in the assay on U251 CNS was greater than 100 µM each time.

Turning to `Cc1cccc2c(N)c3cccc(C(=O)NCC[N+]4(Cc5ccc([N+](=O)[O-])cc5)CCOCC4)c3nc12`, the TGI was greater than 100 µM in the assay with A549 NSCLC; 58.5 µM with HCT-116 colon; greater than 77 µM in the assay on HS 578T breast; greater than 100 µM in the assay with K-562 leukemia; greater than 100 µM in the assay on M14 melanoma; greater than 100 µM in the assay on NCI-H226 lung. In addition, the TGI in the assay with NCI-H522 lung is greater than 84.9 µM; in the assay on OVCAR-4 ovarian, greater than 100 µM; in the assay with SNB-75 CNS, 63 µM; in the assay with U251 CNS, greater than 100 µM.

As for `CSc1c(CC(=O)Nc2ccc(Cl)cc2)n(Cc2ccccc2)c2ccccc12`, the TGI is greater than 100 µM in the assay with A549 NSCLC; greater than 100 µM with HCT-116 colon; 69.4 µM with HS 578T breast; greater than 100 µM in the assay on K-562 leukemia; greater than 100 µM with M14 melanoma; 71.8 µM with NCI-H226 lung. For the same compound, the TGI was greater than 100 µM in the assay with NCI-H522 lung, 35.5 µM with OVCAR-4 ovarian, 33.1 µM in the assay on SNB-75 CNS and 25 µM in the assay on U251 CNS.

As for `O=C(Nc1sccc1S(=O)(=O)c1ccccc1)c1ccccc1`, the TGI in the assay with A549 NSCLC is greater than 100 µM; in the assay on HCT-116 colon, greater than 100 µM; in the assay on HS 578T breast, greater than 100 µM; in the assay with K-562 leukemia, greater than 19.9 µM; in the assay with M14 melanoma, greater than 100 µM; in the assay with NCI-H226 lung it was greater than 100 µM. The TGI in the assay on NCI-H522 lung, in the assay on OVCAR-4 ovarian, in the assay on SNB-75 CNS and in the assay on U251 CNS was greater than 100 µM in each case.

As to `CC(C)(C)C1=CC(=C2C=Cc3ccccc3O2)C=C(C(C)(C)C)C1=O`, the TGI in the assay with A549 NSCLC was 26.2 µM; in the assay with HCT-116 colon it was 11.4 µM; in the assay on HS 578T breast, greater than 47.6 µM; with K-562 leukemia it was 29.9 µM; in the assay with M14 melanoma, 10.6 µM; in the assay on NCI-H226 lung, 25.6 µM. The TGI in the assay with NCI-H522 lung worked out at 17.8 µM; in the assay with OVCAR-4 ovarian, 16.8 µM; in the assay on SNB-75 CNS it was 40 µM; in the assay on U251 CNS, 7.51 µM.

Turning to `Nc1ccc(-c2nc3ccccc3s2)cc1C#Cc1ccccc1`, the TGI came out at 49 µM with A549 NSCLC; 27.4 µM with HCT-116 colon; 50.2 µM in the assay with HS 578T breast; 84.4 µM in the assay on K-562 leukemia; 30.6 µM in the assay on M14 melanoma; 49.2 µM in the assay with NCI-H226 lung. Further, the TGI came out at 34.2 µM in the assay with NCI-H522 lung, 44 µM in the assay with OVCAR-4 ovarian, 59.7 µM in the assay on SNB-75 CNS and 38.6 µM in the assay on U251 CNS.

For the compound `COc1ccc2c3c1OC1C34CCN(C)C(C2)C4=CC(I)C1(OC)OC` (stereo not given), the TGI came out at 54.8 µM in the assay on A549 NSCLC; 14.6 µM in the assay on HCT-116 colon; 79.7 µM in the assay with HS 578T breast; 23.4 µM in the assay with K-562 leukemia; 29.6 µM in the assay with M14 melanoma; 59.3 µM in the assay on NCI-H226 lung. In addition, the TGI with NCI-H522 lung is 15.3 µM; in the assay with OVCAR-4 ovarian it was 30 µM; with SNB-75 CNS, 34.5 µM; with U251 CNS, 29.8 µM.

Turning to `O=[N+]([O-])/C(C(Cl)=C(Cl)Cl)=C(\N1CCCCC1)n1nnc2ccccc21`, the TGI with A549 NSCLC amounted to 51.1 µM; in the assay on HCT-116 colon it was 33.4 µM; in the assay on HS 578T breast it was 81.8 µM; in the assay on K-562 leukemia, 22.5 µM; in the assay with M14 melanoma, 32.5 µM; with NCI-H226 lung, 42.6 µM. Besides, the TGI with NCI-H522 lung was 40 µM; with OVCAR-4 ovarian it was greater than 100 µM; with SNB-75 CNS it was greater than 65.5 µM; in the assay with U251 CNS, 31.1 µM.
